From patent publication US20240279195A1, “SOLID STATE FORMS OF ABEXINOSTAT AND PROCESS FOR PREPARATION THEREOF” (TEVA PHARMACEUTICALS INTERNATIONAL GMBH, priority 2021, published 2024)

Assay: solid state stability of the crystalline form upon heating, pressure, grinding and exposure to humidity
Type: physicochemical

Stability of the crystalline form, stable:
Abexinostat fumarate [Form F3]
Abexinostat maleate [Form M1]
Abexinostat tosylate [Form T1]
